# Measured values reported in US6608086B2, “Dihydropyridines and new uses thereof” (Synaptic Pharmaceutical Corporation, priority 1993, dated 2003).
# Counter-ions that a name gives are not always drawn. Like-named read-outs stand apart in the source and are kept apart here.
# Key:
# L-type calcium channel = target: T1, L-type calcium channel (Rattus norvegicus, UniProt P22002); test: Competition binding of [3H]nitrendipine to membrane fragments of rat cardiac muscle
# T1 construct: membrane fragments of rat cardiac muscle; from tissue; host or cells: rat cardiac muscle membranes
# [1] = target: T2, α1C Human Adrenergic Receptor (Homo sapiens, UniProt P35348); test: Radioligand binding, [3H]prazosin, cloned human α1C adrenergic receptor
# T2 construct: The entire coding region of α1C (1401 bp); expressed in transfected cells
# T2 sequence (P35348 1-466): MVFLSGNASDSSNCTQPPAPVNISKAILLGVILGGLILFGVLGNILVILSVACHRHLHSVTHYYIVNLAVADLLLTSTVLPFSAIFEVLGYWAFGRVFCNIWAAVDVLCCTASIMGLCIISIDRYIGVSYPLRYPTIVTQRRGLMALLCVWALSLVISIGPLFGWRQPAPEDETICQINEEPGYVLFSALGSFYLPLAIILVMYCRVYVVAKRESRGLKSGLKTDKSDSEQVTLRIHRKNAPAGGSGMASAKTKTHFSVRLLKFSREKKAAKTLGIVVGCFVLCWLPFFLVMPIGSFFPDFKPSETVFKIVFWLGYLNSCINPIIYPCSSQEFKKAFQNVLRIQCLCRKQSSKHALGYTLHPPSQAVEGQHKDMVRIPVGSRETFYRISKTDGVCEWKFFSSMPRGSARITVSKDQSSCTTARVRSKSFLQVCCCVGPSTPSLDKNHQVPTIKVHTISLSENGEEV
# Outline: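 Membranes from LM(tk−) cells stably expressing the cloned human α1C receptor were incubated with 0.5 nM [3H]prazosin at 37° C. for 20 min in 50 mM Tris-HCl, 1 mM MgCl2, 0.1% ascorbic acid, pH 7.5. Nonspecific binding was defined with 10 μM phentolamine, and bound ligand was separated by GF/B filtration.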
# [2] = target: T3, α1A Human Adrenergic Receptor (Homo sapiens, UniProt P25100); test: Radioligand binding, [3H]prazosin, cloned human α1A adrenergic receptor
# T3 construct: The entire coding region of α1A (1719 bp); expressed in transfected cells
# T3 sequence (P25100 1-572): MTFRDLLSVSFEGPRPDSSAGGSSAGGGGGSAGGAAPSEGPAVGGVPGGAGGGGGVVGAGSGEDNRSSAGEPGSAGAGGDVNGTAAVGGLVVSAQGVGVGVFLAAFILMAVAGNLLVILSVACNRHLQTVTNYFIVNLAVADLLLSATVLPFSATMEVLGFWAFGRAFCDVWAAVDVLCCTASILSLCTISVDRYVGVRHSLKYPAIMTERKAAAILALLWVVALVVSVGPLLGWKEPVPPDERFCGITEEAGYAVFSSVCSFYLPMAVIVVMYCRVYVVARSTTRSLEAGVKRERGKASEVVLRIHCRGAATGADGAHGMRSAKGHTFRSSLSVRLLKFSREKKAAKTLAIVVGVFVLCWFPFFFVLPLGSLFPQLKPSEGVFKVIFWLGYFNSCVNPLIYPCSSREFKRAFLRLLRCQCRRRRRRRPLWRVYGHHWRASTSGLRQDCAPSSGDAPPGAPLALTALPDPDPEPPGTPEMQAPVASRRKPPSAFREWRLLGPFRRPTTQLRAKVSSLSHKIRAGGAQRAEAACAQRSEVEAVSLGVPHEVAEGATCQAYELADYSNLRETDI
# Outline: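 Membranes from LM(tk−) cells transfected with human α1A were incubated with 0.5 nM [3H]prazosin in 50 mM Tris-HCl, 1 mM MgCl2, 0.1% ascorbic acid, pH 7.5, for 20 min at 37° C. Nonspecific binding was defined with 10 μM phentolamine. Bound ligand was separated by GF/B filtration.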
# [3] = [3H]nitrendipine, rat cardiac muscle membranes, SEM and n in lines below, read-out: pKi Ca (converted)
# [4] = cloned human receptor in LM(tk-) cell membranes, SEM and n in lines below, read-out: pKi alpha-1 1c (converted)
# [5] = [3H]prazosin, cloned human receptor in LM(tk-) cell membranes, SEM and n in lines below, read-out: pKi alpha-1 1a (converted)
# [6] = cloned human receptor, LM(tk-) cell membranes, mean, read-out: PKi alpha-1 1c (converted)
# [7] = [3H]prazosin, cloned human receptor, LM(tk-) cell membranes, mean, read-out: PKi alpha-1 1a (converted)
# [8] = PKi alpha-1 1c, cloned human α1C receptor, LM(tk-) cell membranes
# [9] = PKi alpha-1 1a, [3H]prazosin, cloned human α1A receptor, LM(tk-) cell membranes
# [10] = cloned human α1C receptor, LM(tk-) cell membranes, read-out: PKi alpha-1 1c (converted)
# [11] = [3H]prazosin, cloned human α1A receptor, LM(tk-) cell membranes, read-out: PKi alpha-1 1a (converted)
# T1 sequence (P22002 whole entry, other chains not shown, the tested form may be a part): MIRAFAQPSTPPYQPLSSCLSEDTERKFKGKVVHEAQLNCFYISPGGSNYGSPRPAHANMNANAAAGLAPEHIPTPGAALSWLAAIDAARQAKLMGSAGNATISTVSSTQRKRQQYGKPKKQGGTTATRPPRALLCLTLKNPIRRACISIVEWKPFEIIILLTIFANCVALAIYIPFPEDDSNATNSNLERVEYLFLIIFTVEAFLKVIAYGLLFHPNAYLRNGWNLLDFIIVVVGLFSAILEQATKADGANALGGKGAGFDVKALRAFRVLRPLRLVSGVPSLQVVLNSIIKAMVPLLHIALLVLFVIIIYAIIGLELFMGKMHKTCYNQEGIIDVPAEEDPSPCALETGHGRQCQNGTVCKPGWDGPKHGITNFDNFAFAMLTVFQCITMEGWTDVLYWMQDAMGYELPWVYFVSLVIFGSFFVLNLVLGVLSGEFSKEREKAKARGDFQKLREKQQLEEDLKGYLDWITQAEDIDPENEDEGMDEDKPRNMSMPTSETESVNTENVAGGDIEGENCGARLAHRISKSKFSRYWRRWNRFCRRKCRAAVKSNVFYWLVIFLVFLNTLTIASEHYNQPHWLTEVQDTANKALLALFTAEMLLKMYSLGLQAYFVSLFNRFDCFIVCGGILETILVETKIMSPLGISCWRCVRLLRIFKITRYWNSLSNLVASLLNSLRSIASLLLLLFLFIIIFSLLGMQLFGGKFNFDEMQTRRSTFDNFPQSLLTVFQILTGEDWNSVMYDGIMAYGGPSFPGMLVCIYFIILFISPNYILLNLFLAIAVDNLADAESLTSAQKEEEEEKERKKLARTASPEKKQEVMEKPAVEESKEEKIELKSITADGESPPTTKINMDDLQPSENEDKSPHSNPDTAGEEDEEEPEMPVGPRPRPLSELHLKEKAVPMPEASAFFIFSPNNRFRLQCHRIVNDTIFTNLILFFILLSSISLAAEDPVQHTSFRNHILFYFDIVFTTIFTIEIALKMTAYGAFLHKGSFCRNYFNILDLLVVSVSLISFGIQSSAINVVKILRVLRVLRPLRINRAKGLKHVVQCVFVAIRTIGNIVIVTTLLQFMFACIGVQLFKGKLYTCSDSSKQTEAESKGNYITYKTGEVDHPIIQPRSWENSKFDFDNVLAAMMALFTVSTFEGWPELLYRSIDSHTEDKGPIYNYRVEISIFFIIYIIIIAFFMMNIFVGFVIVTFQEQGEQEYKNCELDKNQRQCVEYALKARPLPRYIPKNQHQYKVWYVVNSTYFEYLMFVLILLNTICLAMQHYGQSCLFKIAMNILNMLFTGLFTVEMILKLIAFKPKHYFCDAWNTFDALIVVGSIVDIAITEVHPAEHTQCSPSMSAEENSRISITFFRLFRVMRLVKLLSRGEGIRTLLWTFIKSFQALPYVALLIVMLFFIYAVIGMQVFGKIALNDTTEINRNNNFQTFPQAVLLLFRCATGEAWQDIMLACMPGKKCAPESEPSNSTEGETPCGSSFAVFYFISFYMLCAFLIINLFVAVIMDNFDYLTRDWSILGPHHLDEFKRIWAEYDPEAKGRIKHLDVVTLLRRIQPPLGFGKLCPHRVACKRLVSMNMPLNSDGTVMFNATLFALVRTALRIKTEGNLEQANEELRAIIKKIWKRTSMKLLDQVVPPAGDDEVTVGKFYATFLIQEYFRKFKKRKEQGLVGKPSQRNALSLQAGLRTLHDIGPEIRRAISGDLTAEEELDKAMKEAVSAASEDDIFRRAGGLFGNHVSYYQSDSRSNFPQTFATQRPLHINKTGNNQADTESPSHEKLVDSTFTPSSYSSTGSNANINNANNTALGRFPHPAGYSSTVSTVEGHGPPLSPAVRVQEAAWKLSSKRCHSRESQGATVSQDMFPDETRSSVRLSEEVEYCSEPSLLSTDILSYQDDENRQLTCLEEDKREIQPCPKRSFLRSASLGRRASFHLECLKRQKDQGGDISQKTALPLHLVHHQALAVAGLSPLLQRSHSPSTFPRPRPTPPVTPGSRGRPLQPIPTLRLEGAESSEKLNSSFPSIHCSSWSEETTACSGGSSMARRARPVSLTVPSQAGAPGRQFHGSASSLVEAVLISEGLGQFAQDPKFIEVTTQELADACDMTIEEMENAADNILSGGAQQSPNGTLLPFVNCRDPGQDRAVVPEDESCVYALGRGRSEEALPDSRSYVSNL
# T1 sequence (P54290 25-944 partner limits assumed, other chains not shown): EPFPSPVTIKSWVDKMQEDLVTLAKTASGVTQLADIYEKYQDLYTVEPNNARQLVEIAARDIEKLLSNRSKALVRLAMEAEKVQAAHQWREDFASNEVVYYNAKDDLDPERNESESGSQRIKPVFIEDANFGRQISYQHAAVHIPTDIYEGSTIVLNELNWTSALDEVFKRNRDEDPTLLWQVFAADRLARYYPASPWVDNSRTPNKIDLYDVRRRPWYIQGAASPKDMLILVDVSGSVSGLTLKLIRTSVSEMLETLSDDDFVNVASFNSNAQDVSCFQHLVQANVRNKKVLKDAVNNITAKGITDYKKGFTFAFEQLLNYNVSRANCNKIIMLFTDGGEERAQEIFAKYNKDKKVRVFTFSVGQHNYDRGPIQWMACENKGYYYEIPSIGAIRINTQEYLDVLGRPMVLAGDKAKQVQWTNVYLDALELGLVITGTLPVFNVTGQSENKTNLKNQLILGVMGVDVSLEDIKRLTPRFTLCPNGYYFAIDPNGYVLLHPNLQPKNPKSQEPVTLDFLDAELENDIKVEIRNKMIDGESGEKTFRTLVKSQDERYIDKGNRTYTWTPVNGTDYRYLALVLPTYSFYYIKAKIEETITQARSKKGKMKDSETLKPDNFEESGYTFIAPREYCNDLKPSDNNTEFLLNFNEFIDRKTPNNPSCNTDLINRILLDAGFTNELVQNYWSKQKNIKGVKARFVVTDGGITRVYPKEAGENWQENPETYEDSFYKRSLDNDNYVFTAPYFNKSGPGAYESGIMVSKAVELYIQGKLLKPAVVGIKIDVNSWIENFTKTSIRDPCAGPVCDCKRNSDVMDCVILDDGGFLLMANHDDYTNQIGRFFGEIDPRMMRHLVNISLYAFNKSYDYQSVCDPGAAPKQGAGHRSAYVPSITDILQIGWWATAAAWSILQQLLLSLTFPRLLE
# T1 sequence (P54290 945-1091 partner limits assumed, other chains not shown): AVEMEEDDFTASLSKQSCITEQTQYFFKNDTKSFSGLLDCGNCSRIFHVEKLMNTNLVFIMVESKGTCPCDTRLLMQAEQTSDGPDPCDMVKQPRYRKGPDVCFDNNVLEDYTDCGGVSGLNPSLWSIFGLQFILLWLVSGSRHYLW
compound,measurement,setting,value
"5-Acetyl-1,4-dihydro-2,6-dimethyl-4-(4-nitrophenyl)-3-[3-(4,4-diphenylpiperidin-1-yl)propoxy]carbonylpyridine hydrochloride hemihydrate [Example 49]",pKi Ca,L-type calcium channel,5.37
same,pKi alpha-1 1c,"[1]; cloned human receptor in LM(tk-) cell membranes, SEM and n in lines below",8.56
same,pKi alpha-1 1a,[2],6.94
"COC(=O)C1=C(C)NC(C)=C(C(=O)NCCCN2CCC(c3ccccc3)CC2)C1c1ccc([N+](=O)[O-])cc1 (racemic) [(±)-45, (±)-1,4-Dihydro-3-methoxycarbonyl-2,6-dimethyl-4-(4-nitrophenyl)-5-{N-[3-(4-phenylpiperidin-1-yl)propyl]}carboxamidopyridine hydrochloride hemihydrate]",Ki,L-type calcium channel; [3],7.41 µM
same,Ki,[1]; [4],0.000234 µM
same,Ki,[2]; [5],0.0661 µM
"CNC(=O)C1=C(C)NC(C)=C(C(=O)NCCCN2CCC(c3ccccc3)(c3ccccc3)CC2)C1c1ccc([N+](=O)[O-])cc1 (racemic) [(±)-119, 1,4-Dihydro-2,6-dimethyl-5-(N-Methyl) carboxamido-4-(4-nitrophenyl)-3-{N-[3-(4,4-diphenylpiperidin-1-yl)propyl]}carboxamidopyridine]",Ki,L-type calcium channel; pKi Ca,7.41 µM
same,pKi alpha-1 1c,"[1]; cloned human α1C receptor, LM(tk−) cell membranes",8.5
same,pKi alpha-1 1a,[2],6.21
"COC(=O)C1=C(C)NC(C)=C(C(=O)NCCCN2CCC(c3ccccc3)CC2)C1c1ccc([N+](=O)[O-])cc1 (single isomer, unassigned; (-)) [(−)-45, 1,4-Dihydro-3-methoxycarbonyl-2,6-dimethyl-4-(4-nitrophenyl)-5-{N-[3-(4-phenylpiperidin-1-yl)propyl]}carboxamidopyridine hydrochloride hemihydrate]",Ki,L-type calcium channel; [3],4.37 µM
same,Ki,[1]; [4],0.000182 µM
same,Ki,[2]; [5],0.0407 µM
"COC(=O)C1=C(C)NC(C)=C(C(=O)NCCCCN2CCC(c3ccccc3)CC2)C1c1ccc([N+](=O)[O-])cc1 (stereo not drawn) [Example 3, 1,4-Dihydro-3-methoxycarbonyl-2,6-dimethyl-4-(4-nitrophenyl)-5-{N-[4-(4-phenylpiperidin-1-yl)butyl]}carbozamidopyridine hydrochloride hydrate]",Ki,L-type calcium channel; [3],1000 µM
same,Ki,[1]; [4],0.00589 µM
same,Ki,[2]; [5],0.145 µM
"CCOC(=O)C1(c2ccccc2)CCN(CCCNC(=O)C2=C(COCCN)NC(CC)=C(C(=O)NC)C2c2ccc([N+](=O)[O-])cc2)CC1 (stereo not drawn) [Example 194, 2-[(2-Aminoethoxy)methyl]-3-{N-[3-(4-ethoxycarbonyl-4-phenylpiperidin-1-yl)propyl]}carboxamido-1,4-dihydro-6-ethyl-5-(N-methyl) carboxamido-4-(4-nitrophenyl) pyridine]",Ki,[1]; [6],0.00372 µM
same,Ki,[2]; [7],4.9 µM
same,melting point,,51 to 53 °C
"CCOC(=O)C1(c2ccccc2)CCN(CCCNC(=O)C2=C(COCCN)NC(CC)=C(C(=O)O)C2c2ccc([N+](=O)[O-])cc2)CC1 (stereo not drawn) [Example 196, 2-[(2-Aminoethoxy)methyl]-3-{N-[3-(4-ethoxycarbonyl-4-phenylpiperidin-1-yl)propyl]}carboxamido-1,4-dihydro-6-ethyl-4-(4-nitrophenyl)pyridine-5-carboxylic Acid]",Ki,[1]; [6],0.0389 µM
same,Ki,[2]; [7],6.76 µM
same,melting point,,103 to 105 °C
CCC1=C(C(N)=O)C(c2ccc([N+](=O)[O-])cc2)C(C(=O)NCCCN2CCC(C(=O)OC)(c3ccccc3)CC2)=C(CC)N1 (stereo not drawn) [Example 200],Ki,[1]; [6],0.00437 µM
same,Ki,[2]; PKi alpha-1 1a,3.31 µM
same,melting point,,112 to 114 °C
"CC(=O)C1=C(C)NC(COCCN)=C(C(=O)NCCCN2CCC(c3ccccc3)(c3ccccc3)CC2)C1c1ccc2c(c1)OCO2 (stereo not drawn) [Example 239, 5-Acetyl-2-((2-aminoethyl)oxy)methyl-1,4-dihydro-6-methyl-4-(3,4-methylenedioxy)phenyl-3-(N-(3-(4,4-dipheylpiperidin-1-yl)propyl))carboxamidopyridine]",Ki,[1]; [8],0.00204 µM
same,Ki,[2]; [9],0.275 µM
same,melting point,,80 °C (dec.)
"CCOC(=O)C1(c2ccccc2)CCN(CCCNC(=O)C2=C(COC)NC(CC)=C(C(=O)O)C2c2ccc([N+](=O)[O-])cc2)CC1 (stereo not drawn) [Example 240, 3-(N-3-(4-Ethoxycarbonyl-4-phenylpiperidin-1-yl)propyl)carboxamido-6-ethyl-1,4-dihydro-2-(methyloxy)methyl-4-(4-nitro)phenylpyridine-5-carboxylic Acid]",Ki,[1]; [10],0.0269 µM
same,Ki,[2]; PKi alpha-1 1a,10 µM
same,melting point,,116 to 126 °C
"COC(=O)C1(c2ccccc2)CCN(CCCNC(=O)C2=C(COCCCN)NC(C)=C(C(C)=O)C2c2ccc([N+](=O)[O-])cc2)CC1 (stereo not drawn) [Example 241, 5-Acetyl-2-((3-aminopropyl)oxy)methyl-1,4-dihydro-3-(N-(3-(4-methoxycarbonyl-4-phenylpiperidin-1-yl)propyl))carboxamido-6-methyl-4-(4-nitro)phenylpyridine]",Ki,[1]; [10],0.00437 µM
same,Ki,[2]; PKi alpha-1 1a,1.45 µM
same,melting point,,70 °C (dec.)
"CC(=O)C1=C(C)NC(COCCN)=C(C(=O)NCCCN2CCC(c3ccccc3)(c3ccccc3)CC2)C1c1ccc(F)cc1 (stereo not drawn) [Example 242, 5-Acetyl-2-((2-aminoethyl)oxy)methyl-4-(4-fluoro)phenyl-1,4-dihydro-6-methyl-3-(N-(3-(4,4-diphenylpiperidin-1-yl)propyl))carboxamidopyridine]",Ki,[1]; [8],0.00398 µM
same,Ki,[2]; [9],0.224 µM
same,melting point,,75 °C (dec.)
"CCOC(=O)C1(c2ccccc2)CCN(CCCNC(=O)C2=C(COCCN)NC(C)=C(C(C)=O)C2c2ccc3c(c2)OCO3)CC1 (stereo not drawn) [Example 244, 5-Acetyl-2-((2-aminoethyl)oxy)methyl-3-(N-(3-(4-ethoxycarbonyl-4-phenylpiperidin-1-yl)propyl)) carboxamido-1,4-dihydro-6-methyl-4-(3,4-methylenedioxy) phenylpyridine]",Ki,[1]; [10],0.00347 µM
same,Ki,[2]; [11],0.851 µM
same,melting point,,55 °C (dec.)
CCC1=C(C(=O)OCCO)C(c2ccc([N+](=O)[O-])cc2)C(C(=O)NCCCN2CCC(c3ccccc3)(c3ccccc3)CC2)=C(COC)N1 (stereo not drawn) [Example 246],Ki,[1]; [8],0.00275 µM
same,Ki,[2]; [9],0.316 µM
same,melting point,,73 °C (dec.)
"CCC1=C(C(=O)NCCOC)C(c2ccc([N+](=O)[O-])cc2)C(C(=O)NCCCN2CCC(c3ccccc3)(c3ccccc3)CC2)=C(COC)N1 (stereo not drawn) [Example 247, 6-Ethyl-1,4-dihydro-5-N-((2-methoxy)ethyl)carboxamido-2-(methyloxy)methyl-4-(4-nitro)phenyl-3-(N-(3-(4,4-diphenylpiperidin-1-yl)propyl)) carboxamidopyridine]",Ki,[1]; [8],0.0245 µM
same,Ki,[2]; [9],0.977 µM
same,melting point,,70 °C (dec.)
"CCC1=C(C(=O)NN2CCOCC2)C(c2ccc([N+](=O)[O-])cc2)C(C(=O)NCCCN2CCC(c3ccccc3)(c3ccccc3)CC2)=C(COC)N1 (stereo not drawn) [Example 248, 6-Ethyl-1,4-dihydro-2-((methyl)oxy)methyl-5-N-(morpholin-4yl)carboxamido-4-(4-nitro)phenyl-3-(N-(3-(4,4-diphenylpiperidin-1-yl)propyl))carboxamidopyridine]",Ki,[1]; [10],0.174 µM
same,Ki,[2]; [11],2.95 µM
same,melting point,,112 °C (dec.)
